Several values for one entry are separate records, joined by “and”; a condition that tells them apart may be missing. Equal entries are not always repeated. Where two headings read alike, the source gives them in different places.
Experiments:
[1] = system: formation of osteoclasts in co-culture of bone marrow cells and osteoblasts; assay: Osteoclastogenesis inhibition via co-culture system (TRAP staining); assay type: cell-based, mice; details: 1 μM compound, 7 days co-culture, TRAP-positive multinucleated osteoclasts vs vehicle control; for inhibition at 1 µM: Mus musculus, Osteoclast, 168 h
Method: Osteoclastogenesis inhibitory effects of the compounds of the present invention were evaluated via a co-culture system (Reference: Endocrinology 137(1996), 2187 to 2190, E. Jimi et al.). A specific experimental method is as follows.
1) Preparation of Bone Marrow Cells and Osteoblasts
Femora and tibia were aseptically dissected from 6 to 8-week-old male ddY mice to harvest bone marrow cells by a conventional method using a syringe. In brief, tissues were removed from the dissected bone, the bone ends were cut off with scissors, and the bone marrow was isolated by pushing a medium-containing syringe (23G) against the one end of the cut bone. The isolated bone marrow was subjected to repeated piston movement of a syringe such that single cells were obtained (Reference: Endocrinology 123(1988), 2600 to 2602, Takahashi et al.). After removal of red blood cells within the bone marrow, the bone marrow cells recovered by centrifugation were placed in an α-MEM supplemented with 10% fetal bovine serum (FBS), followed by counting of nucleated cells and then were immediately used for a co-culture system.
2) Osteoclastogenesis Inhibition Experiment Via Co-Culture System
As the medium used for a co-culture system, a differentiation medium with the addition of differentiation factors 1α,25-dihydroxyvitamin D3 (10^−8M) and dexamethasone (10^−8M) to a-MEM supplemented with 10% FBS was used for the induction of osteoclastogenesis. First, the compounds dissolved in dimethyl sulfoxide (DMSO) at a concentration of 1 mM were diluted to 2 μM using the above-mentioned differentiation medium. As a vehicle control group, 0.2% (v/v) DMSO was added to the medium. 100 μL/well of each medium was added to 96-well plates. In addition, the above prepared bone marrow cells and osteoblasts were plated onto 96-well plates at a density of 1×10^5 cells/50 μL/well and 3×10^3 cells/50 μL/well, respectively. The total volume/well was 200 μL and the final compound concentration was 1 μM. The control group was 0.1% DMSO. The cells were cultured with exchange of the culture media with fresh media containing differentiation factors and test materials at an interval of 2 to 3 days.
7 days after culturing of cells, the formation of multinucleated osteoclasts was confirmed by microscopic examination, the medium was removed from the wells and then the cells were fixed in a 10% phosphate-buffered formalin solution. The degree of formation of mature osteoclasts was measured taking advantage of the characteristics of osteoclasts showing a positive reaction to a tartrate-resistant acid phosphatase (TRAP) staining solution. The TRAP staining solution was prepared in a manner such that naphthol AS-MS phosphate as a substrate and a coloring agent (Fast Red Violet LB salt) were dissolved in N,N-dimethylformamide, and a 0.1N NaHCO3 buffer solution containing 50 mM of tartaric acid was added thereto. Among the TRAP-positive cells under a light microscope, multinucleated osteoclasts having 6 to 7 nuclei were regarded as mature osteoclasts.
The degree of inhibition of osteoclastogenesis was calculated according to the following equation 1. The results are summarized in Table 27 below (Experiments were carried out for 4 wells/experimental group (n=4), and the results are given in terms of mean±standard deviation)
Inhibition of osteoclastogenesis(%)=(1−numbers of osteoclasts observed in experimental group/numbers of osteoclasts observed in vehicle control group)×100(%) [Equation 1]

[2] = system: Osteoblasts (Calvarial cells); assay: Alkaline phosphatase (ALP) activity in osteoblasts (Calvarial cells); assay type: cell-based, mice; details: 1 μM compound, 3 days; for activity at 1 µM: Mus musculus, 72 h, Calvarial cell, read-out: ALP activity (1 μM, % of Control) Calvarial cell
How it was run: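 Primary calvarial osteoblasts or MC3T3-E1 cells in α-MEM with 10% FBS were treated with 1 μM compound, against a 0.1% DMSO vehicle. Cell lysates were incubated with p-nitrophenylphosphate at 37° for 30 minutes and read at 405 nm. ALP activity was expressed as p-nitrophenol/μg protein/min and reported as % change versus vehicle.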

[3] = system: Osteoblasts (Calvarial cells); details: ICR, mouse, 72 h, 1 μM
[4] = system: Osteoblasts (Calvarial cells); assay: Cytotoxicity test (MTT); details: 1 μM compound, 72 hours, in comparison with vehicle control

Cc1ccc(Nc2nc(N3CCC(N)CC3)ccc2[N+](=O)[O-])cc1 [Compound 13, 2-(4-methylphenylamino)-6-(4-aminopiperidino)-3-nitropyridine]
inhibition at 1 µM [1]: 92%
activity at 1 µM [2]: 115%
Cell viability (%) Calvarial cell [3]: 97%

CC(C)(C)c1ccc(Nc2nc(N3CCC(N)CC3)ccc2[N+](=O)[O-])cc1 [Compound 43, 2-[4-(t-butyl)phenylamino]-6-(4-aminopiperidino)-3-nitropyridine]
inhibition at 1 µM [1]: 100%
activity at 1 µM [2]: 121%
Cell viability (%) Calvarial cell [3]: 114%

CC(C)CNc1ccc([N+](=O)[O-])c(Nc2ccc(N)cc2)n1 [Compound 59, 2-[4-(amino)phenylamino]-6-(isobutylamino)-3-nitropyridine]
inhibition at 1 µM [1]: 81%
activity at 1 µM [2]: 115%
Cell viability (%) Calvarial cell [3]: 99%

CC(=O)c1cccc(Nc2nc(NC(C)C)ccc2[N+](=O)[O-])c1 [Compound 97, 2-(3-acetylphenylamino)-6-(isopropylamino)-3-nitropyridine]
inhibition at 1 µM [1]: 80%
activity at 1 µM [2]: 188%
Cell viability (%) Calvarial cell [3]: 114%

CC(=O)c1cccc(Nc2nc(N3CCNCC3)ccc2[N+](=O)[O-])c1 [Compound 106, 2-(3-acetylphenylamino)-6-(piperazin-1-yl)-3-nitropyridine]
inhibition at 1 µM [1]: 87%
activity at 1 µM [2]: 116%
Cell viability (%) Calvarial cell [3]: 81%

O=[N+]([O-])c1ccc(N2CCNCC2)nc1Nc1ccc(N2CCOCC2)cc1 [Compound 120, 2-(4-morpholinophenylamino)-6-(piperazin-1-yl)-3-nitropyridine]
inhibition at 1 µM [1]: 63%
activity at 1 µM [2]: 115%
Cell viability (%) Calvarial cell [3]: 94%

NC1CCN(c2ccc([N+](=O)[O-])c(Nc3ccc(N4CCOCC4)cc3)n2)CC1 [Compound 121, 2-(4-morpholinophenylamino)-6-(4-aminopiperidino)-3-nitropyridine]
inhibition at 1 µM [1]: 89%
activity at 1 µM [2]: 127%
Cell viability (%) Calvarial cell [3]: 100%

CNc1ccc([N+](=O)[O-])c(Nc2ccc(-c3csc(C)n3)cc2)n1 [Compound 132, 2-[4-(2-methylthiazol-4-yl)phenylamino]-6-(methylamino)-3-nitropyridine]
inhibition at 1 µM [1]: 80%
activity at 1 µM [2]: 198%
Cell viability (%) Calvarial cell [3]: 101%

Cc1nc(-c2ccc(Nc3nc(N4CCC(O)CC4)ccc3[N+](=O)[O-])cc2)cs1 [Compound 135, 2-[4-(2-methylthiazol-4-yl)phenylamino]-6-(4-hydroxypiperidino)-3-nitropyridine]
inhibition at 1 µM [1]: 93%
activity at 1 µM [2]: 113%
Cell viability (%) Calvarial cell [3]: 106%

Cc1nc(-c2ccc(Nc3nc(NCc4cccnc4)ccc3[N+](=O)[O-])cc2)cs1 [Compound 138, 2-[4-(2-methylthiazol-4-yl)phenylamino]-6-[(3-pyridyl)methylamino]-3-nitropyridine]
inhibition at 1 µM [1]: 98%
activity at 1 µM [2]: 121%
Cell viability (%) Calvarial cell [3]: 94%

Cc1nc(-c2ccc(Nc3nc(NCc4ccncc4)ccc3[N+](=O)[O-])cc2)cs1 [Compound 139, 2-[4-(2-methylthiazol-4-yl)phenylamino]-6-[(4-pyridyl)methylamino]-3-nitropyridine]
inhibition at 1 µM [1]: 99%
activity at 1 µM [2]: 122%
Cell viability (%) Calvarial cell [3]: 95%

Cc1nc(-c2ccc(Nc3nc(N4CCOCC4)ccc3[N+](=O)[O-])cc2)cs1 [Compound 145, 2-[4-(2-methylthiazol-4-yl)phenylamino]-6-morpholino-3-nitropyridine]
inhibition at 1 µM [1]: 94%
activity at 1 µM [2]: 117%
Cell viability (%) Calvarial cell [3]: 96%

CC(C)CNc1ccc([N+](=O)[O-])c(Nc2ccc(N3CCNCC3)c(F)c2)n1 [Compound 217, 2-[(3-fluoro-4-piperazino)phenylamino]-6-(isobutylamino)-3-nitropyridine]
Osteoclastogenesis inhibition (%) 1 μM [1]: 94%
ALP activity (1 μM, % of Control) Calvarial cell [2]: 119 % of Control
Cell viability (%) Calvarial cell [4]: 92%

CNc1ccc([N+](=O)[O-])c(Nc2ccc(N3CCCCC3)c(F)c2)n1 [Compound 223, 2-[(3-fluoro-4-piperidino)phenylamino]-6-(methylamino)-3-nitropyridine]
Osteoclastogenesis inhibition (%) 1 μM [1]: 82%
ALP activity (1 μM, % of Control) Calvarial cell [2]: 247 % of Control
Cell viability (%) Calvarial cell [4]: 100%

CC(C)CNc1ccc([N+](=O)[O-])c(Nc2ccc(N3CCCCC3)c(F)c2)n1 [Compound 225, 2-[(3-fluoro-4-piperidino)phenylamino]-6-(isobutylamino)-3-nitropyridine]
Osteoclastogenesis inhibition (%) 1 μM [1]: 60%
ALP activity (1 μM, % of Control) Calvarial cell [2]: 150 % of Control
Cell viability (%) Calvarial cell [4]: 90%

CC1=NCCN1c1ccc([N+](=O)[O-])c(Nc2ccc(N3CCCCC3)c(F)c2)n1 [Compound 227, 2-[(3-fluoro-4-piperidino)phenylamino]-6-[(2-methyl-4,5-dihydro)imidazol-1-yl]-3-nitropyridine]
Osteoclastogenesis inhibition (%) 1 μM [1]: 65%
ALP activity (1 μM, % of Control) Calvarial cell [2]: 122 % of Control
Cell viability (%) Calvarial cell [4]: 103%

O=[N+]([O-])c1ccc(NCc2cccnc2)nc1Nc1ccc(N2CCCCC2)c(F)c1 [Compound 229, 2-[(3-fluoro-4-piperidino)phenylamino]-6-[(3-pyridyl)methylamino]-3-nitropyridine]
Osteoclastogenesis inhibition (%) 1 μM [1]: 97%
ALP activity (1 μM, % of Control) Calvarial cell [2]: 114 % of Control
Cell viability (%) Calvarial cell [4]: 104% and 125%

O=[N+]([O-])c1ccc(NCc2ccncc2)nc1Nc1ccc(N2CCCCC2)c(F)c1 [Compound 230, 2-[(3-fluoro-4-piperidino)phenylamino]-6-[(4-pyridyl)methylamino]-3-nitropyridine]
Osteoclastogenesis inhibition (%) 1 μM [1]: 93%
ALP activity (1 μM, % of Control) Calvarial cell [2]: 120 % of Control
Cell viability (%) Calvarial cell [4]: 101%

CC(C)(C)Nc1ccc([N+](=O)[O-])c(Nc2ccc(N3CCCCC3)c(F)c2)n1 [Compound 231, 2-[(3-fluoro-4-piperidino)phenylamino]-6-(t-butylamino)-3-nitropyridine]
Osteoclastogenesis inhibition (%) 1 μM [1]: 82%
ALP activity (1 μM, % of Control) Calvarial cell [2]: 121 % of Control
Cell viability (%) Calvarial cell [4]: 112%

O=[N+]([O-])c1ccc(N2CCOCC2)nc1Nc1ccc(N2CCCCC2)c(F)c1 [Compound 235, 2-[(3-fluoro-4-piperidino)phenylamino]-6-morpholino-3-nitropyridine]
Osteoclastogenesis inhibition (%) 1 μM [1]: 86%
ALP activity (1 μM, % of Control) Calvarial cell [2]: 121 % of Control
Cell viability (%) Calvarial cell [4]: 105%

CNc1ccc([N+](=O)[O-])c(Nc2ccc(N3CCC(O)CC3)c(F)c2)n1 [Compound 236, 2-{[3-fluoro-4-(4-hydroxypiperidino)]phenylamino}-6-(methylamino)-3-nitropyridine]
Osteoclastogenesis inhibition (%) 1 μM [1]: 76%
ALP activity (1 μM, % of Control) Calvarial cell [2]: 209 % of Control
Cell viability (%) Calvarial cell [4]: 91%

CN1CCN(c2ccc([N+](=O)[O-])c(Nc3ccc(N4CCC(O)CC4)c(F)c3)n2)CC1 [Compound 244, 2-{[3-fluoro-4-(4-hydroxypiperidino)]phenylamino}-6-(4-methylpiperazin-1-yl)-3-nitropyridine]
Osteoclastogenesis inhibition (%) 1 μM [1]: 62%
ALP activity (1 μM, % of Control) Calvarial cell [2]: 118 % of Control
Cell viability (%) Calvarial cell [4]: 99%

Source: US20110306606A1, “NOVEL 2,6-SUBSTITUTED-3-NITROPYRIDINE DERIVATIVE, METHOD FOR PREPARING SAME, AND PHARMACEUTICAL COMPOSITION INCLUDING SAME” (priority 2008, published 2011)
